Data taken from patent US5935944A, “Formulation for I.V. administration of the boron delivery drug, boronophenylalanine (BPA)” (Neutron Technology Corporation, priority 1996, dated 1999).
≈ marks a conversion by molar mass, not a printed value.

Experiments:
[1] = pH 7.4; background statement; cited from earlier work
cancer cells = conditions: apparently by amino acid transport system uptake; cited from earlier work

Method for physchem: For solubility determinations, an excess of BPA was always used. All formulations were sonicated (ultrasonic wave treatment), adjusted to a final pH of 7.4, and filtered through a 0.22 micron filter. The BPA concentration of filtered solutions was calculated from B levels which were measured by inductively coupled plasma atomic emission spectrometry. […] Unless otherwise specified, BPA and B levels are reported as mean±standard error of the mean (SEM) of three experiments.

For `NC(Cc1ccc(B(O)O)cc1)C(=O)O` (stereo not shown) [BPA, P-boronophenylalanine], the solubility (physchem; buffer, pH 7.4, aqueous buffer) is given as 2200 ± 400 µg/mL (≈ 10.5 mM), the solubility (physchem; water, pH 7.4, water) is given as 1150 to 3700 µg/mL (≈ 5.5 to 17.7 mM) and the “water solubility at physiological pH” value [1] is given as less than 4 ppm. For the same molecule, the “selective accumulation in cancer cells” value (cancer cells) was “does seem to selectively accumulate in cancer cells”.
